In one series the target is hERG potassium channel (Homo sapiens (Human), UniProt Q12809). The experiment in a line: hERG inhibition, automated planar patch-clamp in hERG-expressing CHO cells. The following applies: read-out: Test Example 5 hERG IC50; whole-cell patch clamp, room temperature. For orientation: hERG is a cardiac potassium channel; its block is linked to QT prolongation.
Series [1] deals with T1, BACE1 (Homo sapiens (Human), UniProt P56817). Put plainly: Measurement of BACE1 inhibition by time resolved fluorescence resonance energy transfer (TR-FRET). Type of series: biochemical. The following applies: Eu-CEVNLDAEFK-QSY 7 substrate, read-out: Test Example 2 IC50.
Target sequence in this assay (P56817 75-416): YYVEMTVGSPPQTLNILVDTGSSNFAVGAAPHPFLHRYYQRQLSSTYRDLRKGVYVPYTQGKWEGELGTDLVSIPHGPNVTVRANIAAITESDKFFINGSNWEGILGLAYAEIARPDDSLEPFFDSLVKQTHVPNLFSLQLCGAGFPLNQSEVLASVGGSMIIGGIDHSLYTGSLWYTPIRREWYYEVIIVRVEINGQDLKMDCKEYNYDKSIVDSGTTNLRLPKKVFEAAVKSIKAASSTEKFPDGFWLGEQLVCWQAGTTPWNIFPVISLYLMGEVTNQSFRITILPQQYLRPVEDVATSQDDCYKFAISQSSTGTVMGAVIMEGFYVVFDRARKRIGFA
Method: If the sample contains BACE1 activity, the Eu chelate and the quencher will be separated as the substrate is cleaved. The Eu-signal increases and it can be measured by time-resolved fluorometry, EnVision™, 30 minutes after the substrate (final concentration 300 nM) was added.
Series [2] deals with T1, BACE1. The experiment in a line: Measurement of Aβ production inhibition in cell (SK-N-BE(2) neuroblastoma cells, Aβ40 ELISA). The following applies: Test Example 3 IC50, Aβ40 production, SK-N-BE(2) cells, 6 hours. For orientation: In an ELISA, binding on a coated surface is turned into a signal by an enzyme label.
Target sequence in this assay (P56817 46-501): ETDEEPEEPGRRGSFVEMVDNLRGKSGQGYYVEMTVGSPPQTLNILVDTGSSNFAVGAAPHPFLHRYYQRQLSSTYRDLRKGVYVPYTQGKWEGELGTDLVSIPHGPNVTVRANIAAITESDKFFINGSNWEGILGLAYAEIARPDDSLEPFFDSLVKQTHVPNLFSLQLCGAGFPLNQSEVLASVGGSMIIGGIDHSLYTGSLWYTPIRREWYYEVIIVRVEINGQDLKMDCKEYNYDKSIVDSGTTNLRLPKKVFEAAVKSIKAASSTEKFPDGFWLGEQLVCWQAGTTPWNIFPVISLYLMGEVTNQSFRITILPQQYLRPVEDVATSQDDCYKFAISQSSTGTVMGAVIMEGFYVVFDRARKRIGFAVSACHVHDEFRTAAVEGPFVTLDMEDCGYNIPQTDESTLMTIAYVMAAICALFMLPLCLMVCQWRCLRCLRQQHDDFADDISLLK
A further series deals with Aβ42. Put plainly: Brain Aβ reduction in rats (Aβ42 ELISA). Type of series: in vivo, Sprague-Dawley rats. The following applies: rat, oral. How it is done: Effects on brain Aβ reduction in rats were determined with reference to the method described in the WO2012/054510. […] Concretely, the test was conducted with the method as below.
Test compounds were prepared in a vehicle of 35% HPβCD in H2O. The test compound was formulated the same day as oral dosing. Doses (see [Table. 1]) were based on the free base equivalent. Sonication was used where required to facilitate the formulation.
Male Sprague-Dawley rats (150-300 grams) were obtained from Charles River Japan (Atsugi, Japan) and were given approximately 4 days of acclimation. Food and water was made available ad libitum throughout the study. Animals were visually inspected for health before being included into the study group, and were randomly assigned to the treatment and control groups to achieve similar group mean body weights. The dosing solution (dose volume 5 mL/kg) was administered directly into the stomach using a rodent gavage needle. Control animals received oral administration of equivalent volume of the vehicle.
At a time post-dose (e.g., 3 hours; see [Table. 1]), animals were euthanized with isoflurane. […] Plasma was separated using centrifugation at 15,000 rpm (20,400×g) for 5 minutes at 4° C. and subsequently stored at −80° C. After blood sampling, CSF (cerebrospinal fluid) was carefully withdrawn from the cisterna magna using a 29 gauge needle after a quick dissection to expose the atlantooccipital membrane. The CSF samples were centrifuged at 15,000 rpm (20,400×g) for 5 minutes to confirm free of blood contamination and stored at −80° C. Immediately after decapitation, the hippocampus were isolated on ice, and quickly frozen in liquid nitrogen and stored at −80° C.
Fragments of the hippocampus were weighed while frozen. A 10-fold volume (w:v) of TBS (Tris-buffered saline) supplemented with a Complete Mini protease inhibitor tablet (catalog number: 11 836 153 001, Roche Diagnostics, In, USA) was added. The hippocampus were homogenized using sonication on ice in microcentrifuge tube. Resulting homogenates were centrifuged at 100,000×g for 1 hour in a refrigerated centrifuge at 4° C. Supernatants were collected as soluble fraction.
Each concentration of Aβ42 was divided by the mean concentration of Aβ42 of vehicle-treated group, and these ratios were converted to percentages.

Series [3] concerns the target T1, BACE1. Put plainly: Measurement of BACE1 inhibition by fluorescence resonance energy transfer (FRET), MCA substrate. The following applies: FRET; for IC50: read-out: Test Example 1 IC50, MCA-SEVNLDAEFK(DNP)-NH2 substrate, pH 4.4.
Target sequence in this assay (P56817 75-416): as the sequence (P56817 75-416) above

hERG potassium channel, sequence (Q12809 whole entry): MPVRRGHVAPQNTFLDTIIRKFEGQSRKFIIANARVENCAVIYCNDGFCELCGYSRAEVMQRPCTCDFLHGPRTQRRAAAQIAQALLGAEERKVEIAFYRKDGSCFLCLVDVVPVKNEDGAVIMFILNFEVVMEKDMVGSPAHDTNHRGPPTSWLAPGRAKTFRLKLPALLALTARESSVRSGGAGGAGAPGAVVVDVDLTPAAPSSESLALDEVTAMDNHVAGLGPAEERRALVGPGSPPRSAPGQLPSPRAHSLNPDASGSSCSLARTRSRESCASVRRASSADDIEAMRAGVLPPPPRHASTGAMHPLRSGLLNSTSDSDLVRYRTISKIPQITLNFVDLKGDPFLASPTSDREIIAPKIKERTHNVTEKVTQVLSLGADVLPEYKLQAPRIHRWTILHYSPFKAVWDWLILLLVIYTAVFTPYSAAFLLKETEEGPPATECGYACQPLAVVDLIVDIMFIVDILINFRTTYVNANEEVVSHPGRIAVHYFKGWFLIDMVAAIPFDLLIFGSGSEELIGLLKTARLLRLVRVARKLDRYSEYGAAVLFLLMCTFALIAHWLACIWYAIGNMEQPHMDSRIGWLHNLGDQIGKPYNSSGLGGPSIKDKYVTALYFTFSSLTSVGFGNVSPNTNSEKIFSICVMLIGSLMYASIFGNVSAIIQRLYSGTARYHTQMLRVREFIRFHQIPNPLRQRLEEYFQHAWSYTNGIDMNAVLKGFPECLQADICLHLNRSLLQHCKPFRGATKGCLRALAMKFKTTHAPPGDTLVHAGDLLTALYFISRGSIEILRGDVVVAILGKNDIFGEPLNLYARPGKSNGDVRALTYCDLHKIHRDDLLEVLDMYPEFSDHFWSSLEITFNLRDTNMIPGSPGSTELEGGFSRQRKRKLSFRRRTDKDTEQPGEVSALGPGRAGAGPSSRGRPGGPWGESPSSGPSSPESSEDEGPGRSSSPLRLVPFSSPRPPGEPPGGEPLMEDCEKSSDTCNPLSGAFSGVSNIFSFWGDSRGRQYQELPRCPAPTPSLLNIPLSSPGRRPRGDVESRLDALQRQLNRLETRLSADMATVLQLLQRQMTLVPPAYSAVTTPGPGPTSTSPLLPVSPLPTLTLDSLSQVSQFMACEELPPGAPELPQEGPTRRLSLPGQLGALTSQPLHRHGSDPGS

`NC1=NC2(CO1)c1cc(-c3cc(Cl)cnc3F)ccc1OCC21CC1` (stereo not shown) [RP 104]: the figures for the IC50 at hERG potassium channel and on BACE1 [1] were 3.25 µM and 1.13 µM, respectively.
With `CC1(C)Oc2ccc(-c3cc(Cl)cnc3F)cc2C2(COC(N)=N2)C12COC2` (stereo not shown) [RP 154], the IC50 (usually the concentration at which inhibition is half-maximal) against BACE1 [2] is 0.032 µM; on hERG potassium channel it was above 1 µM; at BACE1 [1], 0.313 µM.
Consider `COc1cnc(C(=O)Nc2ccc3c(c2)[C@@]2(COC(N)=N2)C2(CC2)C(C)(C)O3)cn1` [Example 230, N-[(4′R)-2″-amino-2′,2′-dimethyldispiro[cyclopropane-1,3′-chromene-4′,4″-[1,3]oxazol]-6′-yl]-5-methoxypyrazine-2-carboxamide], for which the melting point (in general, the temperature, or range, at which the solid turns liquid) was determined as 191 °C.
With `CC1(C)Oc2ccc(NC(=O)c3cnc(C(F)F)cn3)cc2[C@@]2(COC(N)=N2)C12CC2` [Example 224, N-[(4′R)-2″-amino-2′,2′-dimethyldispiro[cyclopropane-1,3′-chromene-4′,4″-[1,3]oxazol]-6′-yl]-5-(difluoromethyl)pyrazine-2-carboxamide], the half-maximal inhibitory concentration (IC50) on hERG potassium channel was 15.1 µM. For the same compound, the “Test Example 4 Aβ42 reduction (%)” value was 21% in the series with Aβ42 (1 mg/kg, 3 hours) and 35% in the series on Aβ42 (3 mg/kg, 3 hours).
`COC/C=C/c1ccc2c(c1)C1(COC(N)=N1)C1(COC1)C(C)(C)O2` (stereo not shown) [RP 181]: the IC50 amounted to 0.82 µM against BACE1 [2], 2.13 µM at BACE1 [1] and 2.59 µM at BACE1 [3].
As to `CC1(C)Oc2ccc(NC(=O)c3ccc(Cl)cn3)cc2[C@@]2(COC(N)=N2)C12COC2` [Example 218, N-[(4S)-2-amino-2′,2′-dimethyldispiro[1,3-oxazole-4,4′-chromene-3′,3″-oxetan]-6′-yl]-5-chloropyridine-2-carboxamide], the “Test Example 4 Aβ42 reduction (%)” value in the series with Aβ42 (3 mg/kg, 2.5 hours) was determined as 24%; in the series on Aβ42 (10 mg/kg, 2.5 hours), 31%.
With `CC1(C)Oc2ccc(NC(=O)c3ccc(Cl)cn3)cc2[C@@]2(COC(N)=N2)C12CC2` [Example 221], the IC50 at BACE1 [2] was determined as 0.00016 µM; on BACE1 [3], 0.0818 µM. In addition, the “Test Example 4 Aβ42 reduction (%)” value in the series on Aβ42 (1 mg/kg, 3 hours) turned out to be 24%; in the series on Aβ42 (3 mg/kg, 3 hours), 42%. The Ki (as a rule, the equilibrium dissociation constant of an inhibitor or competing ligand from its target) at BACE1 [3] (read-out: Test Example 1 BACE1 MCA Ki, MCA substrate) came out at 0.0378 µM.
As for `NC1=NC2(CO1)c1cc(-c3cncc4ccccc34)ccc1OC1(CCC1)C21COC1` (stereo not shown) [RP 210], the half-inhibitory concentration (IC50) on hERG potassium channel worked out at 3.7 µM; at BACE1 [1], 4.95 µM.
Turning to `Cc1cn2ccc(-c3ccc4c(c3)C3(COC(N)=N3)C3(COC3)C3(CCC3)O4)cc2n1` (stereo not shown) [RP 66], the IC50 on hERG potassium channel is above 10 µM; at BACE1 [1] it was 135 µM.
On to `CC1(C)Oc2ccc(-c3c(F)ccc(F)c3F)cc2C2(COC(N)=N2)C12COC2` (stereo not shown) [RP 185], for which the figures for the IC50 against BACE1 [2], on BACE1 [1] and on BACE1 [3] were 0.76 µM, 1.27 µM and 2.05 µM, respectively.
As to `CC1(C)Oc2ccc(-c3cncc(Cl)c3)cc2C2(COC(N)=N2)C12COC2` (stereo not shown) [RP 173], the IC50 against BACE1 [2] was determined as 0.073 µM; at BACE1 [1], 0.239 µM; at BACE1 [3], 0.401 µM.
The like results for `CC1(C)Oc2ccc(-c3ccc4[nH]ccc4c3)cc2C2(COC(N)=N2)C12COC2` (stereo not shown) [RP 174, 6′-(1H-indol-5-yl)-2′,2′-dimethyldispiro[1,3-oxazole-4,4′-chromene-3′,3″-oxetan]-2-amine] were, in that order, 3.4 µM, 2.18 µM and 3.35 µM.
As to `COc1cnc(C(=O)Nc2ccc3c(c2)[C@@]2(COC(N)=N2)C2(COC2)C(C)(C)O3)cn1` [Example 220], on hERG potassium channel, the IC50 was above 10 µM. Besides, the “Test Example 4 Aβ42 reduction (%)” value is reported as 21% with Aβ42 (3 mg/kg, 1.5 hours) and 27% with Aβ42 (10 mg/kg, 1.5 hours).
Consider `COc1cnc(C(=O)Nc2ccc3c(c2)[C@@]2(COC(N)=N2)C2(CC2)C(C)(C)O3)cn1` [Example 223, N-[(4′R)-2″-amino-2′,2′-dimethyldispiro[cyclopropane-1,3′-chromene-4′,4″-[1,3]oxazol]-6′-yl]-5-methoxypyrazine-2-carboxamide], for which the “Test Example 4 Aβ42 reduction (%)” value was 19% with Aβ42 (1 mg/kg, 3 hours) and 34% in the series with Aβ42 (3 mg/kg, 3 hours).
On to `CC1(C)Oc2ccc(-c3cc(C#N)ccc3F)cc2C2(COC(N)=N2)C12COC2` (stereo not shown) [RP 170], for which the IC50 came out at 0.4 µM against BACE1 [2], 0.588 µM at BACE1 [1] and 1 µM at BACE1 [3].
`Cc1cn2cc(-c3ccc4c(c3)C3(COC(N)=N3)C3(COC3)C3(CCC3)O4)ccc2n1` (stereo not shown) [RP 67]: the IC50 at hERG potassium channel was above 10 µM; on BACE1 [1] it was 96.5 µM.
As for `CC1(C)Oc2ccc(-c3cccc4cnccc34)cc2C2(COC(N)=N2)C12COC2` (stereo not shown) [RP 180], the half-maximal inhibitory concentration (IC50) came out at 0.49 µM at BACE1 [2], 1.77 µM on BACE1 [1] and 2.03 µM on BACE1 [3].
With `Cn1cc2cc(-c3ccc4c(c3)C3(COC(N)=N3)C3(CC3)CO4)ccc2n1` (stereo not shown) [RP 213], the IC50 was above 10 µM on hERG potassium channel and 39.6 µM at BACE1 [1].
Regarding `CC1(C)Oc2ccc(-c3cccc4cccnc34)cc2C2(COC(N)=N2)C12COC2` (stereo not shown) [RP 179], the 50% inhibitory concentration (IC50) against BACE1 [2] amounted to 1.4 µM; at BACE1 [1] it was 2.06 µM; on BACE1 [3] it was 3.24 µM.
Regarding `CC1(C)Oc2ccc(-c3ccc4nonc4c3)cc2C2(COC(N)=N2)C12COC2` (stereo not shown) [RP 178], the IC50 against BACE1 [2] came to 0.81 µM; on BACE1 [1] it was 0.747 µM; on BACE1 [3], 1.15 µM.
The like results for `CNC(=O)c1cc(F)cc(-c2ccc3c(c2)C2(COC(N)=N2)C2(COC2)C(C)(C)O3)c1` (stereo not shown) [RP 171] were, in that order, 3.1 µM, 3.04 µM and 2.24 µM.
In turn, `CC1(C)Oc2ccc(NC(=O)c3ccc(Cl)cn3)cc2[C@@]2(COC(N)=N2)C12COC2` (hydrate or solvate) [Example 218, N-[(4S)-2-amino-2′,2′-dimethyldispiro[1,3-oxazole-4,4′-chromene-3′,3″-oxetan]-6′-yl]-5-chloropyridine-2-carboxamide] yielded a melting point of 165 °C.
Still for that read-out and setting: the value for `CC1(C)Oc2ccc(NC(=O)c3cnc(C(F)F)cn3)cc2[C@@]2(COC(N)=N2)C12CC2.Cl` was 254 °C.

The values are drawn from patent US8975415B2, “Chromane compounds” (CoMentis, Inc., priority 2012, dated 2015).
